# Laboratory results from ChEMBL document CHEMBL5126537, “Influenza-existing drugs and treatment prospects” (Eur J Med Chem, 2022).
# Experiments:
# Influenza A virus = experiment: Antiviral activity against Influenza A virus A/PR/8/34 (H1N1) infected in MDCK cells assessed as inhibition of viral entry preincubated for 1 hr followed by infection in MDCK cells measured after 1 hr by focus forming assay; format: functional, organism-based
# [1] = Cytotoxicity against MDCK cells; format: toxicity, cell-based, Canis lupus familiaris; settings: dog
# [2] = Elimination half life in INH dosed mouse lungs; format: ADME, organism-based, Lung; settings: in vivo, inhaled_or_intranasal
structure (smiles),measurement,setting,value
COc1cc(OC)c2c(=O)c(O)c(-c3ccc(OC)c(OC)c3)oc2c1,IC50,Influenza A virus,36 µM
NC(=O)c1nc(F)c[nH]c1=O [FAVIPIRAVIR],CC50,[1],> 2000 µg/mL
CCCCCCCC(=O)OC[C@@H](O)[C@@H](OC)[C@@H]1OC(C(=O)O)=C[C@H](NC(=N)N)[C@H]1NC(C)=O [LANINAMIVIR OCTANOATE],t1/2,[2],41 h
